Test results from patent US12459930B2, “Compounds for the inhibition of unregulated cell growth” (GODAVARI BIOREFINERIES LIMITED, priority 2018, dated 2025).
Read-outs that look alike come from different tables or passages of the source.

Tests used:
[1] = test system: MDAMB231 breast cancer cell line; test: In vitro antiproliferative assay (MTT assay), MDAMB231; assay type: cell-based; details: 48 hrs drug incubation, read-out: IC50 in micromolar, MDAMB231 (MTT assay)
Method in brief: (§1)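 Growth inhibition determined by MTT (0.5 mg/ml, 4 h) following 48 h compound treatment of cells plated 24 h earlier at 37 °C, 5% CO2.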

[2] = test system: PC3 prostate cancer cell line; test: In vitro antiproliferative assay (MTT assay), PC3; assay type: cell-based; details: 48 h, 48 hrs drug incubation, read-out: IC50 in micromolar, PC3 (MTT assay)
Method in brief: as §1

[3] = test system: DU145 prostate cancer cell line; test: In vitro antiproliferative assay (MTT assay), DU145; assay type: cell-based; details: Homo sapiens, DU-145, 48 h, 48 hrs drug incubation, read-out: IC50 in micromolar, DU145 (MTT assay)
Method in brief: as §1

[4] = test system: MDAMB231 breast cancer cell line; test: Soft agar colony-formation assay, MDAMB231; assay type: cell-based; details: Homo sapiens, MDA-MB-231, 168 h, 1 week, Alamar Blue, read-out: IC50 in micromolar, MDAMB231 (Soft Agar Assay)
Method in brief: (§2)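 Cells were embedded with drug in a top soft-agar layer over an agar base in 96-well format. Colonies grew for 1 week at 37 °C, 5% CO2, with medium feeding at day 3. Alamar Blue was added for 24 h, absorbance read at 630 nm, and log percent viability plotted against log drug concentration.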

[5] = test system: PC3 prostate cancer cell line; test: Soft agar colony-formation assay, PC3; assay type: cell-based; details: 168 h, 1 week, Alamar Blue, read-out: IC50 in micromolar, PC3 (Soft Agar Assay)
Method in brief: as §2

[6] = test system: PC3 spheres (cancer stem cells); details: human, 216 h
From the text: (§3) In Vitro Sphere-forming Assay: Sphere assay measures the ability of cancer stem cells (CSCs) to form spheres in specially designed serum-free medium.
(§4) Materials and Reagents:50×B27 Supplement (Life Technologies, Invitrogen, Catlog No.: 17502-044), Fibroblast Growth Factor (FGF) (Sigma-Aldrich, Catlog No.: F029125), Epidermal Growth Factor (EGF) (Sigma-Aldrich, Catlog No.: E9644), Insulin (Sigma, Catlog No.: 19278), Dulbecco's Modified Eagle Medium/F12 (HiMedia Catlog No.: AL139-6), Dulbecco's Phosphate Buffered Saline (HiMedia Catlog No.: TL1006), Trypan Blue (TC193), Prostate Epithelial Media (LONZA, Catlog No.: CC-3166) MEGM (LONZA, Catlog No.: CC-3051), Heparin (Sigma, Catlog No.: H3393), Penstrep (HiMedia, Catlog No.: A002)
(§5) Prostosphere Media Preparation (For 100 mL): 1 g methyl cellulose autoclaved with magnetic stirrer, 100 mL plain media (Prostate Epithelial Basal Medium) was added and dissolved, under magnetic stirring. After complete dissolution, Insulin—40 μL, B27—2 mL, EGF—80 μL, Penstrep—1 ml was added.
(§6) Procedure—The cells were trypsinised and made into single-cell suspension by passing through cell strainers (100 μl and 40 μl, respectively), The cells were diluted at a concentration of 2000 cells/100 μL and suspended in either Mammosphere (for breast cell lines) or Prostosphere (for prostate cell lines). 100 μL of this suspension was added into each well of 96-well suspension plates and incubated at 37 C, 50 CO2 for 24 hrs. Appropriate concentrations of the drugs (2 L) were added into respective wells with 100 μL of stem cell culture medium. Plates were incubated at 37° C., 50% CO2 for 72 hrs. After incubation, 2.5 μL of the respective drug concentration and 50 μL of stem cell culture medium were added into each well and the plates were further incubated at 37° C., 500 CO2 for 72 hrs. 3 μL of the respective drug concentration was added with 50 μL of stem cell culture medium again after incubation and plates were reincubated for 72 hrs at 37° C., 500 CO2. Number of primary spheres formed for each concentration were counted. The spheres were converted to 0 viability of spheres compared to untreated (Growth Control with DMSO, GCD).

[7] = test system: PC3 spheres (cancer stem cells); test: In vitro sphere-forming assay (cancer stem cells), PC3 in Prostosphere media; details: for 3D sphere count of PC3 in Prostosphere media: 2000 cells/well, n = 6 ± S.D; for viability at 0.0025 µM: read-out: % Viability of spheres (PC3), 0.0025 uM
From the text: as §3, §4, §5, §6

[8] = test system: MDAMB231 spheres (cancer stem cells); test: In vitro sphere-forming assay (cancer stem cells), MDAMB231 in Mammosphere media; details: for 3D sphere count of MDAMB231 in Mammosphere media: 2000 cells/well, n = 6 ± S.D; for viability at 0.0025 µM / viability at 0.025 µM / viability at 0.25 µM / viability at 2.5 µM / viability at 25 µM: Homo sapiens, MDA-MB-231, read-out: % Viability of spheres (MDAMB231)
Method: as §3
Mammosphere Media Preparation (For 100 mL): 1 g methyl cellulose autoclaved with magnetic stirrer, 100 ml plain media (MEBM) was added and dissolved under magnetic stirring. After complete dissolution FGF—80 μL, EGF—40 μL, Penstrep—1 mL, Heparin—400 μL was added.
as §6

| SMILES | IC50 [2] [µM] | IC50 [3] [µM] | IC50 [4] [µM] | IC50 [5] [µM] | 3D sphere count of PC3 in Prostosphere media ([7]; 0.0025 uM) | 3D sphere count of PC3 in Prostosphere media ([7]; 0.025 uM) | 3D sphere count of PC3 in Prostosphere media ([7]; 0.25 uM) | 3D sphere count of PC3 in Prostosphere media ([7]; 2.5 uM) | 3D sphere count of PC3 in Prostosphere media ([7]; 25 uM) | viability at 0.0025 µM ([7]; GCD = 100% viability) [%] | 3D sphere count of MDAMB231 in Mammosphere media ([8]; 0.0025 uM) | 3D sphere count of MDAMB231 in Mammosphere media ([8]; 0.025 uM) | 3D sphere count of MDAMB231 in Mammosphere media ([8]; 0.25 uM) | 3D sphere count of MDAMB231 in Mammosphere media ([8]; 2.5 uM) | 3D sphere count of MDAMB231 in Mammosphere media ([8]; 25 uM) | viability at 0.0025 µM [8] [%] | viability at 0.025 µM [8] [%] | viability at 0.25 µM [8] [%] | viability at 2.5 µM [8] [%] | viability at 25 µM [8] [%] | other results |
| --- | --- | --- | --- | --- | --- | --- | --- | --- | --- | --- | --- | --- | --- | --- | --- | --- | --- | --- | --- | --- | --- |
| COc1cc2c(OCCCCN3CCOCC3)c3c(c(-c4ccc5c(c4)OCO5)c2cc1OC)C(=O)OC3.Cl [Formula VII, 4-(4-morpholinobutoxy)-9-(benzo[d][1,3]dioxol-5-yl)-6,7-dimethoxynaphtho[2,3-c]furan-1(3H)-one Hydrochloride] | 2.75 | 2.34 | 2.05 | 2.7 | 56(±3) | 46(±3) | 41(±3) | 37(±2) | 32(±3) | 69 | 58(±3) | 47(±3) | 36(±3) | 29(±3) | 21(±2) | 81 | 66 | 50 | 41 | 29 | IC50 ([1]; hydrochloride): 3.27 µM; % Viability of spheres (PC3) ([6]; 0.025 µM): 59(±3) %; % Viability of spheres (PC3) ([6]; 0.25 µM): 50(±2) %; % Viability of spheres (PC3) ([6]; 2.5 µM): 44(±2) %; % Viability of spheres (PC3) ([6]; 25 µM): 34(±3) % |
| c1cc2c(cc1-c1ccc(OCCCCCCN3CCOCC3)c3c1CCCC3)OCO2 [Formula XX, 4-(6-(5-(benzo[d][1,3]dioxol-5-yl)-1,2,3,4-tetrahydronaphthalen-8-yloxy)hexyl) morpholine] | 3.34 | 3.87 | 3.78 | 3.31 | 48(±5) | 37(±2) | 33(±4) | 15(±3) | 0(±0) | 58 | 48(±4) | 37(±4) | 27(±3) | 14(±4) | 0(±0) | 61 | 47 | 34 | 17 | 0 | IC50 ([1]; Homo sapiens, MDA-MB-231, 48 h): 3.04 µM; viability at 0.025 µM ([7]; read-out: % Viability of spheres (PC3), 0.025 uM, GCD = 100% viability): 45%; viability at 0.25 µM ([7]; read-out: % Viability of spheres (PC3), 0.25 uM, GCD = 100% viability): 40%; viability at 2.5 µM ([7]; read-out: % Viability of spheres (PC3), 2.5 uM, GCD = 100% viability): 18%; viability at 25 µM ([7]; read-out: % Viability of spheres (PC3), 25 uM, GCD = 100% viability): 0% |
